# Data as given in article PMC11678245, “The Molecular Basis of the Intrinsic and Acquired Resistance to Azole Antifungals in Aspergillus fumigatus” (Journal of Fungi, 2024).
# Values joined by “and” are separate entries in the source; they are usually repeats but may differ in a detail not shown here. Equal values may be shown once. Read-outs that look alike come from different tables or passages of the source.
# Tests used:
# [1] = tested on: S. cerevisiae strain BRE (AfCyp51B-6×His, AfCprA2, AfErg6-FLAG); assay: MIC80 susceptibility, strain BRE; type: cell-based, Saccharomyces cerevisiae; settings: strain BRE; for MIC80 / MIC: ± SD; for MIC: 48 h
# Description: (§1) The susceptibilities of S. cerevisiae strains to antifungal drugs were determined as minimum growth inhibitory concentration (MIC) values in 200 μL SD pH 6.8 [24]. Serial 2-fold dilutions of 100 μL of azole or control drugs in SD pH 6.8 were prepared in a 96-well microtiter plate. A portion of a 2 mL SD pH 6.8 overnight culture of the test strain was inoculated into 3 mL fresh SD pH 6.8 and incubated for 4 to 6 h at 30 °C to generate logarithmic-phase cells. These cells were then diluted with fresh SD pH 6.8 to OD600nm = 0.01 (3 × 10^4 CFU), and 100 μL of this cell suspension was added to microtiter plate wells. Cell growth after 48 h incubation at 30 °C with shaking at 200 rpm was determined at 600 nm using a BioTek™ Synergy™ 2 multi-Mode microplate reader controlled using Gen5™ Data Analysis Software version 3.16.10 (BioTek Instruments, Winooski, VT, USA). MIC80 values (80% growth inhibition in the presence of the test drug compared with the untreated control) for each yeast construct were determined as technical triplicates repeated three times for three separate clones.
# [2] = tested on: S. cerevisiae strain AR (AfCyp51A-6×His, AfCprA2-6×His); assay: MIC80 susceptibility, strain AR; type: cell-based, Saccharomyces cerevisiae; settings: Saccharomyces cerevisiae, 48 h, pH 6.8
# Description: as §1
# [3] = tested on: S. cerevisiae strain ARE Y121F T289A (AfCyp51A-6×His Y121F T289A, AfCprA2, AfErg6-FLAG); assay: MIC80 susceptibility, strain Y121F T289A; type: cell-based, Saccharomyces cerevisiae
# Description: as §1
# [4] = tested on: S. cerevisiae strain A (AfCyp51A-6×His, native ScCyp51 retained); assay: MIC80 susceptibility, strain A; type: cell-based; settings: Saccharomyces cerevisiae, Table 2, SD pH 6.8, 48 h, 30 °C
# Description: as §1
# [5] = tested on: S. cerevisiae strain BR (AfCyp51B-6×His, AfCprA2-6×His); assay: MIC80 susceptibility, strain BR; type: cell-based; settings: Saccharomyces cerevisiae, 48 h, pH 6.8
# Description: as §1
# [6] = tested on: S. cerevisiae strain ARE Y121F (AfCyp51A-6×His Y121F, AfCprA2, AfErg6-FLAG); assay: MIC80 susceptibility, strain Y121F; type: cell-based, Saccharomyces cerevisiae
# Description: as §1
# [7] = tested on: S. cerevisiae strain ARE (AfCyp51A-6×His, AfCprA2, AfErg6-FLAG); assay: MIC80 susceptibility, strain ARE; type: cell-based, Saccharomyces cerevisiae
# Description: as §1
# [8] = tested on: S. cerevisiae strain ARE T289A (AfCyp51A-6×His T289A, AfCprA2, AfErg6-FLAG); assay: MIC80 susceptibility, strain T289A; type: cell-based, Saccharomyces cerevisiae; settings: for MIC80: ± SD
# Description: as §1
# [9] = tested on: S. cerevisiae strain ADΔΔ (native ScCYP51); assay: MIC80 susceptibility, host strain ADΔΔ; type: cell-based; settings: Saccharomyces cerevisiae, Table 2, SD pH 6.8, 48 h, 30 °C
# Description: as §1
# [10] = tested on: S. cerevisiae strain ADLS overexpressing ScCYP51-6×His; assay: MIC80 susceptibility, strain ADLS; type: cell-based, Saccharomyces cerevisiae
# Description: as §1
# AfCYP51B-6×His = biological target: T1, AfCYP51B-6×His (Aspergillus fumigatus, UniProt E9QY26); assay: Type II binding of azole drugs (difference spectra)
# T1 sequence (E9QY26 1-524): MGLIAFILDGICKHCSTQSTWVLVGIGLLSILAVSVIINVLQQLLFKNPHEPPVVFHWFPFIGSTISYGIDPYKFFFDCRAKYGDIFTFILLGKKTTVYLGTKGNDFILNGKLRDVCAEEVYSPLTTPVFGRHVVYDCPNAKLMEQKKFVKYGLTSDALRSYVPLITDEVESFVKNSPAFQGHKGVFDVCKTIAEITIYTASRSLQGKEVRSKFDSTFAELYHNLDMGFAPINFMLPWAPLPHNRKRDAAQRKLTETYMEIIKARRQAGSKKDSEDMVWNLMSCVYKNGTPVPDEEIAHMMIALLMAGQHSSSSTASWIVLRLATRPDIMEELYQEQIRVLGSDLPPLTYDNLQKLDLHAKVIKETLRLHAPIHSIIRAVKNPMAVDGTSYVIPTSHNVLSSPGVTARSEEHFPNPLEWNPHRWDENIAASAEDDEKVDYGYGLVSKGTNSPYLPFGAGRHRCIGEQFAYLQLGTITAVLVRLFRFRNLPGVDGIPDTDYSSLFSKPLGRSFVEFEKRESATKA
# Description: The concentration of AfCYP51A and AfCYP51B, purified using Ni-NTA affinity chromatography and used for the spectrophotometric type I and type II binding assays, was calculated using an extinction co-efficient of λ417nm = 117 mM^−1 cm^−1 applied to the absolute absorption spectrum of the preparations. In addition, the amount of “active” cytochrome P450 enzyme was determined using the carbon monoxide (CO) binding spectra of these preparations.
# Type II binding difference spectra were obtained using 1 μM of affinity-purified CYP51 enzymes. VCZ, PCZ, VT-1161, DCZ, and MCF working solutions were prepared in DMSO, while FLC was prepared in Milli-Q water. Azole drugs were added to the sample cuvette, and corresponding amounts of DMSO or Milli-Q water were added to the reference cuvette. Drug binding curves were plotted using the difference spectrum peak and trough detected in the range of 410–425 nm. Dissociation constants (Kd) were determined by nonlinear regression (Levenberg–Marquardt algorithm) of the difference in absorbance between the peak and trough against the azole concentration using a rearrangement of the Morrison equation or the Hill equation [7]. GraphPad Prism 9.2.0 software was used to identify the best fit for the data.
# [11] = tested on: S. cerevisiae strain ARE I301T (AfCyp51A-6×His I301T, AfCprA2, AfErg6-FLAG); assay: MIC80 susceptibility, strain I301T; type: cell-based, Saccharomyces cerevisiae; settings: for MIC80: ± SD
# Description: as §1
# [12] = tested on: S. cerevisiae Y2300 ADΔΔ CYP51 (ScCYP51); assay: MIC80 susceptibility, strain Y2300 (Table S1); type: cell-based, Saccharomyces cerevisiae; settings: Table S1; strain Y2300 ADΔΔ CYP51
# Description: as §1, with “clones. […]” for “clones.”
# (§2) Table S1. Azole susceptibilities of ScCYP51 and ScCYP51 T322I expressed
# (§3) Data for each strain was obtained for […] in three biological replicates.
# [13] = tested on: S. cerevisiae Y2305 ADΔΔ CYP51 T322I (ScCYP51 T322I); assay: MIC80 susceptibility, strain Y2305 (Table S1); type: cell-based, Saccharomyces cerevisiae
# Description: as §1, with “clones. […]” for “clones.”
# as §2, §3
# [14] = Saccharomyces cerevisiae, 48 h, pH 6.8
# [15] = Saccharomyces cerevisiae, Table 3
# [16] = Saccharomyces cerevisiae, Table 3, read-out: MIC80
# [17] = Saccharomyces cerevisiae, Table 3, strain ARE Y121F T289A, ± SD, read-out: MIC80
# [18] = Saccharomyces cerevisiae, Table 3, strain ARE Y121F, ± SD, read-out: MIC80
# [19] = Saccharomyces cerevisiae, 48 h, read-out: MIC80
# [20] = Saccharomyces cerevisiae, Table 3, strain ARE, ± SD, read-out: MIC80
# [21] = Saccharomyces cerevisiae, Table 3, strain ARE T289A, read-out: MIC80
# [22] = Saccharomyces cerevisiae, Table 3, strain ARE I301T, read-out: MIC80
# [23] = Table 3, strain ARE Y121F T289A, ± SD
# [24] = Table 3, strain ARE Y121F, ± SD
compound,measurement,setting,value
"CC1COC(Cn2cncn2)(c2ccc(Oc3ccc(Cl)cc3)cc2Cl)O1 (centres unmarked) [DCZ, difenoconazole]",MIC80,"[1]; Saccharomyces cerevisiae, Table 2, SD pH 6.8, 48 h, 30 °C, read-out: MIC80",< 0.01 µM
same,MIC80,[2],0.07 ± 0.01 µM
same,increase in resistance (MIC80) of strain Y121F T289A compared with strain ARE,[3],1.5 fold
same,MIC80,[3]; [14],0.92 ± 0.07 µM
same,MIC80,[4],0.01 µM
same,MIC80,[5],< 0.01 µM
same,increased susceptibility of AfCYP51A Y121F mutant (vs ARE),[6],2 fold
same,MIC80,[6]; [14],0.37 ± 0.02 µM
same,MIC80,[7]; [14],0.64 ± 0.04 µM
same,greater susceptibility (MIC80) of strain T289A compared with strain ARE,[8],64 fold
same,MIC80,"[8]; Saccharomyces cerevisiae, 48 h, pH 6.8, Table 2, strain T289A, SD pH 6.8, 48 h, 30 °C",< 0.01 µM
same,MIC80,[9],< 0.01 µM
same,MIC80,[10]; [14],0.04 ± 0.02 µM
same,MIC80,"[10]; Table 2, strain ADLS, SD pH 6.8, 48 h, 30 °C, ± SD",0.04 ± 0.01 µM
same,λpeak (type II difference spectrum),AfCYP51B-6×His; 1 μM enzyme,426 nm
same,λtrough (type II difference spectrum),AfCYP51B-6×His; 1 μM enzyme,410 nm
same,ΔAmax (type II binding),"AfCYP51B-6×His; 1 μM enzyme, Hill equation",0.10
same,Hill Number,AfCYP51B-6×His; type II binding,1.55
same,Kd,"AfCYP51B-6×His; type II binding, 1 μM enzyme, Hill equation",1760 ± 80 nM
same,MIC80,"[11]; Saccharomyces cerevisiae, 48 h, pH 6.8, Table 2, strain I301T, SD pH 6.8, 48 h, 30 °C",0.35 ± 0.06 µM
CCC(C)n1ncn(-c2ccc(N3CCN(c4ccc(OCC5COC(Cn6cncn6)(c6ccc(Cl)cc6Cl)O5)cc4)CC3)cc2)c1=O (centres unmarked) [ITC],MIC80,[12],0.15 ± 0.01 µM
same,MIC80,[13],0.13 ± 0.01 µM
"C[C@@H](c1nc(-c2ccc(C#N)cc2)cs1)[C@](O)(Cn1cncn1)c1cc(F)ccc1F [IVC, isavuconazole]",MIC,[1]; [15],< 0.0156 µM
same,MIC80,[1]; [16],0.0109 ± 0.003 µM
same,increase in resistance (MIC80) of strain Y121F T289A compared with strain ARE,[3],3- to 5 fold
same,MIC80,[3]; [17],0.11 ± 0.011 µM
same,increase in resistance (MIC80) of strain Y121F compared with strain ARE,[6],3- to 5 fold and 3 fold
same,MIC80,[6]; [18],0.071 ± 0.014 µM
same,lower susceptibility of strain ARE compared to strain BRE,[7],2 fold
same,MIC,[7]; [19],< 0.0156 µM
same,MIC80,[7]; [20],0.021 ± 0.007 µM
same,MIC80,[8]; [21],0.0102 ± 0.0057 µM
same,MIC80,[11]; [22],0.0119 ± 0.0028 µM
OC(Cn1cncn1)(Cn1cncn1)c1ccccc1 [MCC7915],MIC80,[1]; Table 3,223 ± 79 µM
same,reduced susceptibility compared to FLC,[1],50 fold
same,MIC80,[3]; [23],219 ± 29 µM
same,MIC80,[6]; [24],180 ± 11 µM
same,MIC80,"[7]; Table 3, strain ARE, ± SD",427 ± 23 µM
same,reduced susceptibility compared to FLC,[7]; strain ARE,2.5 fold
same,MIC80,"[8]; Table 3, strain ARE T289A",248 ± 23 µM
same,MIC80,"[11]; Table 3, strain ARE I301T",278 ± 45 µM
OC(Cn1cncn1)(Cn1cncn1)c1ccccc1F [MCC7916],MIC80,[1]; Table 3,21 ± 3 µM
same,MIC80,[3]; [23],198 ± 41 µM
same,MIC80,[6]; [24],80 ± 17 µM
same,MIC80,"[7]; Table 3, strain ARE, ± SD",120 ± 40 µM
same,MIC80,"[8]; Table 3, strain ARE T289A",52 ± 6 µM
same,MIC80,"[11]; Table 3, strain ARE I301T",51 ± 6 µM
OC(Cn1cncn1)(Cn1cncn1)c1ccc(F)cc1 [MCC7917],MIC80,[1]; Table 3,38 ± 11 µM
same,MIC80,[3]; [23],242 ± 41 µM
same,MIC80,[6]; [24],179 ± 9 µM
same,MIC80,"[7]; Table 3, strain ARE, ± SD",411 ± 30 µM
same,MIC80,"[8]; Table 3, strain ARE T289A",103 ± 11 µM
same,MIC80,"[11]; Table 3, strain ARE I301T",257 ± 37 µM
OC(Cn1cncn1)(Cn1cncn1)c1cc(F)ccc1F [MCC8768],MIC80,[1]; Table 3,25 ± 8 µM
same,reduced susceptibility compared to FLC,[1],> 6 fold
same,MIC80,[3]; [23],1025 ± 148 µM
same,MIC80,[6]; [24],324 ± 109 µM
same,MIC80,"[7]; Table 3, strain ARE, ± SD",354 ± 76 µM
same,reduced susceptibility compared to FLC,[7]; strain ARE,~ 3 fold
same,MIC80,"[8]; Table 3, strain ARE T289A",106 ± 28 µM
same,reduced susceptibility compared to FLC,[8]; strain T289A,> 6 fold
same,MIC80,"[11]; Table 3, strain ARE I301T",211 ± 21 µM
same,reduced susceptibility compared to FLC,[11]; strain I301T,~ 3 fold
"C[C@@H](c1nc(-c2ccc(C#N)cc2)cs1)[C@](O)(Cn1cncn1)c1ccc(F)cc1F [RVC, ravuconazole]",MIC,[1]; [15],< 0.0156 µM
same,MIC80,[1]; [16],0.0038 ± 0.0008 µM
same,increase in resistance (MIC80) of strain Y121F T289A compared with strain ARE,[3],3- to 5 fold
same,MIC80,[3]; [17],0.033 ± 0.006 µM
same,increase in resistance (MIC80) of strain Y121F compared with strain ARE,[6],3- to 5 fold and 6 fold
same,MIC80,[6]; [18],0.047 ± 0.005 µM
same,lower susceptibility of strain ARE compared to strain BRE,[7],2 fold
same,MIC,[7]; [19],< 0.0156 µM
same,MIC80,[7]; [20],0.0088 ± 0.0023 µM
same,MIC80,[8]; [21],0.0032 ± 0.0015 µM
same,MIC80,[11]; [22],0.0034 ± 0.0015 µM
